# Measurements as given in patent US9540323B2 (BRISTOL-MYERS SQUIBB COMPANY, priority 2012, dated 2017).
# Assays:
# [1] = tested on: human platelet rich plasma (PRP); assay: ADP induced platelet aggregation assay; details: Homo sapiens, Platelet, 5 min, read-out: PA IC50 (μM) @ 10 μM ADP, human PRP, 10 μM ADP, AUC at 5 minute
# [2] = biological target: cloned human P2Y1 receptors (Homo sapiens (Human), UniProt P47900); assay: Binding Assay B - Scintillation Proximity Assay (SPA) for P2Y1 binding, [33P] 2MeS-ADP; details: SPA, 0.3 nM [33P] 2MeS-ADP, Cheng-Prusoff; read-out: P2Y1 Ki (nM) using binding assay B
# Chain of cloned human P2Y1 receptors (P47900 whole entry): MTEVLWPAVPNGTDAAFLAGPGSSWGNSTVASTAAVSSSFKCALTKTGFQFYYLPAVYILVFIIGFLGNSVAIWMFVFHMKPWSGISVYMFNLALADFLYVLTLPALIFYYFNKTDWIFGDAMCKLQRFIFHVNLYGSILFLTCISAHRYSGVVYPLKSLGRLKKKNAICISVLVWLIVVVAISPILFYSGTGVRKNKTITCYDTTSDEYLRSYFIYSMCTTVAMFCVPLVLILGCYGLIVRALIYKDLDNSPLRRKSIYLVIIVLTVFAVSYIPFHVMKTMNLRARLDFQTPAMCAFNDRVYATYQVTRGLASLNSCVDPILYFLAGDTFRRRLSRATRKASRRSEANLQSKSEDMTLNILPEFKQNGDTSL
# Method: Binding Assay B—Scintillation Proximity Assay (SPA) for P2Y1 Binding
# A SPA membrane binding assay was used to identify inhibitors of [^33P] […] Reactions were allowed to proceed to completion at room temperature for 1 hour followed by centrifugation of the plate for 5 min. About 40 μL of the aqueous solution was aspirated. Plates were sealed and the [^33P]
SMILES,IC50 [1],Ki [2]
"CC1(C)CN(c2c(F)cccc2NC(=O)Nc2ccc(F)cc2F)c2c(O)ccc(C(F)(F)F)c21 [Example 62, 1-(2,4-Difluorophenyl)-3-(3-fluoro-2-(7-hydroxy-3,3-dimethyl-4-(trifluoromethyl)indolin-1-yl)phenyl)urea]",0.75 µM,14.6 nM
"CC1(C)CN(c2ccccc2NC(=O)Nc2ccc(OC(F)(F)F)cc2)c2c(O)c(F)cc(-c3ccccc3)c21 [Example 230, 1-(2-(6-Fluoro-7-hydroxy-3,3-dimethyl-4-phenylindolin-1-yl)phenyl)-3-(4-(trifluoromethoxy)phenyl)urea]",0.3 µM,16.3 nM
"C=C(C)c1ccc(-c2c(F)cc(O)c3c2C(C)(C)CN3c2ccccc2NC(=O)Nc2ccc(OC(F)(F)F)cc2)cc1 [Example 250, 1-(2-(5-Fluoro-7-hydroxy-3,3-dimethyl-4-(4-(prop-1-en-2-yl)phenyl)indolin-1-yl)phenyl)-3-(4-(trifluoromethoxy)phenyl)urea]",0.22 µM,29.5 nM
"CCC1(CC)CN(c2ccccc2NC(=O)Nc2ccc(C(C)(C)C)cc2)c2c(O)ccc(C#N)c21 [Example 44, 1-(4-tert-Butylphenyl)-3-(2-(4-cyano-3,3-diethyl-7-hydroxyindolin-1-yl)phenyl)urea]",0.45 µM,6.9 nM
"CC1(C)CN(c2ccccc2NC(=O)Nc2ccc(OC(F)(F)F)cc2)c2c(O)ccc(-c3ccc(F)cc3F)c21 [Example 203, 1-(2-(4-(2,4-Difluorophenyl)-7-hydroxy-3,3-dimethylindolin-1-yl)phenyl)-3-(4-(trifluoromethoxy)phenyl)urea]",0.16 µM,8 nM
"CC1(C)CN(c2ccccc2NC(=O)Nc2ccc(OC(F)(F)F)cc2)c2c(O)cc(F)c(-c3ccc(C(F)(F)F)cn3)c21 [Example 149, 1-(2-(5-Fluoro-7-hydroxy-3,3-dimethyl-4-(5-(trifluoromethyl)pyridin-2-yl)indolin-1-yl)phenyl)-3-(4-(trifluoromethoxy)phenyl)urea]",0.11 µM,13 nM
"CC1(C)CN(c2ccccc2NC(=O)Nc2nc3ccc(F)cc3s2)c2c(O)cc(F)c(-c3ccc(F)cc3)c21 [Example 213, 1-(2-(5-Fluoro-4-(4-fluorophenyl)-7-hydroxy-3,3-dimethylindolin-1-yl)phenyl)-3-(6-fluorobenzo[d]thiazol-2-yl)urea]",0.38 µM,25.4 nM
"CC1(C)CN(c2ccccc2NC(=O)Nc2ccc(OC(F)(F)F)cc2)c2c(O)c(F)cc(-c3ccc(Cl)cc3)c21 [Example 231, 1-(2-(4-(4-Chlorophenyl)-6-fluoro-7-hydroxy-3,3-dimethylindolin-1-yl)phenyl)-3-(4-(trifluoromethoxy)phenyl)urea]",0.3 µM,15.2 nM
"CC1(C)CN(c2ccccc2NC(=O)Nc2ccc(OC(F)(F)F)cc2)c2c(O)cc(F)c(-c3ccc(Cl)cn3)c21 [Example 162, 1-(2-(4-(5-Chloropyridin-2-yl)-5-fluoro-7-hydroxy-3,3-dimethylindolin-1-yl)phenyl)-3-(4-(trifluoromethoxy)phenyl)urea]",0.25 µM,6.4 nM
"CC(C)CN1CCCC1c1ccc(NC(=O)Nc2ccccc2N2CC(C)(C)c3c(-c4ccc(F)cc4)ccc(O)c32)cc1 (stereo not drawn) [Example 200, 1-(2-(4-(4-Fluorophenyl)-7-hydroxy-3,3-dimethylindolin-1-yl)phenyl)-3-(4-(1-isobutylpyrrolidin-2-yl)phenyl)urea]",0.05 µM,4.6 nM
"CC1(C)CN(c2ccccc2NC(=O)Nc2ccc(OC(F)(F)F)cc2)c2c(O)ccc(-c3nc4ccc(Cl)cc4o3)c21 [Example 91, 1-(2-(4-(6-Chlorobenzo[d]oxazol-2-yl)-7-hydroxy-3,3-dimethylindolin-1-yl)phenyl)-3-(4-(trifluoromethoxy)phenyl)urea]",0.33 µM,65.1 nM
"CC1(C)CN(c2ccccc2NC(=O)Nc2csc(Cl)n2)c2c(O)cc(F)c(Br)c21 [Example 68, 1-(2-(4-Bromo-5-fluoro-7-hydroxy-3,3-dimethylindolin-1-yl)phenyl)-3-(2-chlorothiazol-4-yl)urea]",0.6 µM,7.5 nM
"CC(C)(C)c1nc(-c2c(F)cc(O)c3c2C(C)(C)CN3c2ccccc2NC(=O)Nc2ccc(OC(F)(F)F)cc2)co1 [Example 259, 1-(2-(4-(2-(tert-Butyl)oxazol-4-yl)-5-fluoro-7-hydroxy-3,3-dimethylindolin-1-yl)phenyl)-3-(4-(trifluoromethoxy)phenyl)urea]",0.58 µM,46.3 nM
"CC1(C)CN(c2ccccc2NC(=O)Nc2ccc(OC(F)(F)F)cc2)c2c(O)ccc(-c3cncc(Cl)c3)c21 [Example 116, 1-(2-(4-(5-Chloropyridin-3-yl)-7-hydroxy-3,3-dimethylindolin-1-yl)phenyl)-3-(4-(trifluoromethoxy)phenyl) urea]",0.5 µM,22.4 nM
"CC1(C)CN(c2ccccc2NC(=O)Nc2ccc(OC(F)(F)F)cc2)c2c(O)c(F)cc(CC(F)(F)F)c21 [Example 79, 1-(2-(6-Fluoro-7-hydroxy-3,3-dimethyl-4-(2,2,2-trifluoroethyl)indolin-1-yl)phenyl)-3-(4-(trifluoromethoxy)phenyl)urea]",0.83 µM,9.7 nM
"CCC1(CC)CN(c2ccccc2NC(=O)Nc2ccc(C3CCN(CC(C)C)CC3)cc2)c2c(O)ccc(Cl)c21 [Example 50, 1-(2-(4-Chloro-3,3-diethyl-7-hydroxyindolin-1-yl)phenyl)-3-(4-(1-isobutylpiperidin-4-yl)phenyl)urea]",0.86 µM,6.6 nM
"CC1(C)CN(c2ccccc2NC(=O)Nc2ccc(C(F)(F)F)cc2)c2c(O)ccc(C(F)(F)F)c21 [Example 17, 1-(2-(7-Hydroxy-3,3-dimethyl-4-(trifluoromethyl)indolin-1-yl)phenyl)-3-(4-(trifluoro-methyl)phenyl)urea]",0.27 µM,16.4 nM
"CC(C)CN1CCCC1c1ccc(NC(=O)Nc2ccccc2N2CC(C)(C)c3c(F)ccc(O)c32)cc1 (stereo not drawn) [Example 34, 1-(2-(4-Fluoro-7-hydroxy-3,3-dimethylindolin-1-yl)phenyl)-3-(4-(1-isobutylpyrrolidin-2-yl)phenyl)urea]",1.07 µM,9.8 nM
"CC1(C)CN(c2ccccc2NC(=O)Nc2ccc(OC(F)(F)F)cc2)c2c(O)ccc(-c3nc4cc(F)c(F)cc4o3)c21 [Example 99, 1-(2-(4-(5,6-Difluorobenzo[d]oxazol-2-yl)-7-hydroxy-3,3-dimethylindolin-1-yl)phenyl)-3-(4-(trifluoromethoxy)phenyl)urea]",0.89 µM,28.1 nM
"CC(C)(C)c1ccc(-c2c(F)cc(O)c3c2C(C)(C)CN3c2ccccc2NC(=O)Nc2ccc(OC(F)(F)F)cc2)cn1 [Example 165, 1-(2-(4-(6-(tert-Butyl)pyridin-3-yl)-5-fluoro-7-hydroxy-3,3-dimethylindolin-1-yl)phenyl)-3-(4-(trifluoromethoxy)phenyl)urea]",0.21 µM,26.8 nM
"CC1(C)CN(c2ccccc2NC(=O)Nc2nc3ccc(F)cc3s2)c2c(O)ccc(C(F)(F)F)c21 [Example 18, 1-(6-Fluorobenzo[d]thiazol-2-yl)-3-(2-(7-hydroxy-3,3-dimethyl-4-(trifluoromethyl)indolin-1-yl)phenyl)urea]",0.17 µM,12.4 nM
